In EP4603105A1, “PHARMACEUTICAL COMPOSITION CONTAINING CYCLIC COMPOUND HAVING SELECTIVE KRAS INHIBITORY EFFECT AGAINST HRAS AND NRAS” (CHUGAI SEIYAKU KABUSHIKI KAISHA, priority 2022, dated 2024):
Where two headings read alike, the source gives them in different places.

What was measured:
[1] = target: GDP-bound NRAS wild-type protein (Homo sapiens, UniProt P01111); experiment: Binding to NRAS by surface plasmon resonance (SPR), KD and KD ratio to KRAS
In short: (§1)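 Compound binding is evaluated by SPR single-cycle kinetics, with concentrations added intermittently from low to high for 75 s each. Target surfaces carry GDP-loaded biotinylated Avi-RAS at about 100–300 RU, regenerated after each cycle; temperature 30°C. A 1:1 binding model gives KD.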

[2] = target: HRAS wild-type protein (Homo sapiens, UniProt P01112); experiment: Binding to HRAS by surface plasmon resonance (SPR), KD and KD ratio to KRAS
HRAS wild-type protein, sequence (P01112 whole entry): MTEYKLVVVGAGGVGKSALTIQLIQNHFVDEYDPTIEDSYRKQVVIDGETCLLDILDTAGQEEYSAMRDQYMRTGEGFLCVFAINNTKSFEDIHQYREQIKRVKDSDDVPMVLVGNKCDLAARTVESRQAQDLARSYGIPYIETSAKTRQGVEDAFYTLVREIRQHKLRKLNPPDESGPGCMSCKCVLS
In short: as §1

[3] = target: GDP-bound KRAS wild-type protein (Homo sapiens, UniProt P01116); experiment: Binding to KRAS by surface plasmon resonance (SPR), dissociation constant KD
GDP-bound KRAS wild-type protein, sequence (P01116 1-188 isoform P01116-2): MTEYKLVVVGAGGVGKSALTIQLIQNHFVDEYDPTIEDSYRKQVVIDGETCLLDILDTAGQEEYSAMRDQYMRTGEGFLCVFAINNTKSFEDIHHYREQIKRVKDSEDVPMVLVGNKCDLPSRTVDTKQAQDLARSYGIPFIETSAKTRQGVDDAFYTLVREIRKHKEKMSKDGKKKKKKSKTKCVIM
In short: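 Affinity is measured by surface plasmon resonance at 30°C against captured, GDP-loaded RAS carrying a biotinylated Avi tag. Compounds are titrated by single-cycle kinetics, and KD comes from a 1:1 fit.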

[4] = system: human lung cancer strain NCI-H441; experiment: NCI-H441 cell proliferation inhibitory activity (CellTiter-Glo, 4 days); assay type: cell-based; conditions: read-out: NCl-H441 IC50
Description: A test compound was dispensed into a U-bottom 384-well plate as 40 nL serially diluted dimethyl sulfoxide solutions using a liquid handler Echo (LABCYTE). […] This cell suspension was dispensed in an amount of 40 µL per well into a plate containing the test compound, and cultured at 37°C in a 5% carbon dioxide gas incubator. Four days later, 20 µL of CellTiter-Glo (registered trademark) (Promega) was added to each well and […] was measured. […]

[5] = ratio of KD for GDP-bound NRAS wild-type protein to KD for KRAS
[6] = ratio of KD for HRAS wild-type protein to KD for KRAS
[7] = ratio of KD with respect to GDP-bound NRAS wild-type protein to KD with respect to KRAS
[8] = ratio of KD with respect to HRAS wild-type protein to KD with respect to KRAS
[9] = Single Cycle Kinetics, 1:1 binding model
[10] = 50% proliferation inhibitory concentration, four days

GDP-bound NRAS wild-type protein, sequence (P01111 whole entry): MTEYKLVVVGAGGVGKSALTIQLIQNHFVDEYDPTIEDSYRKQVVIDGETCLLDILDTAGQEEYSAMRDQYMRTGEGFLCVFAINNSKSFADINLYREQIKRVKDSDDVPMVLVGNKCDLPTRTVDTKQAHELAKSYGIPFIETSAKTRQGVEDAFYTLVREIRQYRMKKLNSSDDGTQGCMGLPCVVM

CCC(CC)[C@H]1C(=O)N(C)[C@H](C(=O)N(C)C)CC(=O)N(C)[C@@H](COC)C(=O)N[C@@H]([C@@H](C)CC)C(=O)N(C)CC(=O)N(C)[C@H]2C/C=C\CCN(C2=O)[C@@H](Cc2ccc(C(F)F)cc2)C(=O)N(C)CC(=O)N[C@@H](CCc2ccc(Cl)c(Cl)c2)C(=O)N2C[C@H](OC3CCCC3)C[C@H]2C(=O)NC2(CC(C)(C)C2)C(=O)N1C [PP2649]
NRAS /KRAS [1, 5]: AA (a compound having 20 or more is denoted as AA)
HRAS /KRAS [2, 6]: A (a compound having 10 or more and less than 20 is denoted as A)
Kd ([3]; 1:1 binding model): 0.4 nM
IC50 ([4]; NCI-H441 cells, 4 days): 61 nM

CCC[C@H]1C(=O)N[C@@H]([C@@H](C)CC)C(=O)N2C[C@@H](OC)C[C@H]2C(=O)N(C)[C@H]2C/C=C\CCN(C2=O)[C@@H](Cc2ccc(C)cc2)C(=O)N(C)CC(=O)N[C@@H](CCc2cc(F)c(C(F)(F)F)c(F)c2)C(=O)N2C[C@H](OCC)C[C@H]2C(=O)NC2(CC(C)(C)C2)C(=O)N(C)[C@@H](C2CCCC2)C(=O)N(C)[C@H](C(=O)N(C)C)CC(=O)N1C [PP2556]
NRAS /KRAS [1, 5]: A (a compound having 10 or more and less than 20 is denoted as A)
HRAS /KRAS [2, 6]: B (a compound having 3 or more and less than 10 is denoted as B)
Kd ([3]; 1:1 binding model): 0.21 nM
IC50 ([4]; NCI-H441 cells, 4 days): 9.4 nM

CCO[C@@H]1C[C@H]2C(=O)OC3(CCC3)C(=O)N(C)[C@@H](C3CCCC3)C(=O)N(C)[C@H](C(=O)N(C)C)CC(=O)N(C)[C@@H](CC(C)C)C(=O)N[C@@H]([C@@H](C)CC)C(=O)N3CCC[C@H]3C(=O)N(C)[C@H]3C/C=C\CCN(C3=O)[C@@H](Cc3ccc(C(F)(F)F)cc3)C(=O)N(C)CC(=O)N[C@@H](CCc3ccc(C(F)(F)F)c(OC)c3)C(=O)N2C1 [PP3362]
NRAS /KRAS [1, 5]: A (a compound having 10 or more and less than 20 is denoted as A)
HRAS /KRAS [2, 6]: A (a compound having 10 or more and less than 20 is denoted as A)
Kd ([3]; Single Cycle Kinetics): 0.84 nM
IC50 ([4]; NCI-H441 cells, 4 days): 34.3 nM

CCO[C@@H]1C[C@H]2C(=O)NC3(CCC3)C(=O)N(C)[C@@H](C3CCCC3)C(=O)N(C)[C@H](C(=O)N3CCOCC3)CC(=O)N(C)[C@@H](CC(C)C)C(=O)N[C@@H]([C@@H](C)CC)C(=O)N3CC[C@H]3C(=O)N(C)[C@H]3CC[C@@H](C)CN(C3=O)[C@@H](Cc3ccc(C(F)(F)F)cc3)C(=O)N(C)CC(=O)N[C@@H](CCc3cc(F)c(C(F)(F)F)c(F)c3)C(=O)N2C1 [PP1373]
NRAS /KRAS [1, 7]: B (a compound having 3 or more and less than 10 is denoted as B)
HRAS /KRAS [2, 8]: B (a compound having 3 or more and less than 10 is denoted as B)
Kd [3, 9]: 0.35 nM
IC50 [4, 10]: 12.2 nM

CCCO[C@@H]1C[C@H]2C(=O)NC3(CC(C)(C)C3)C(=O)N(C)[C@@H](C3CCCC3)C(=O)N(C)[C@H](C(=O)N(C)CC)CC(=O)N(C)[C@@H](COCC)C(=O)N[C@@H]([C@@H](C)CC)C(=O)N3CCC[C@H]3C(=O)N(C)[C@H]3C/C=C\CCN(C3=O)[C@@H](Cc3ccc(C)cc3)C(=O)N(C)CC(=O)N[C@@H](CCc3cc(F)c(C(F)(F)F)c(F)c3)C(=O)N2C1 [PP3459]
NRAS /KRAS [1, 5]: A (a compound having 10 or more and less than 20 is denoted as A)
HRAS /KRAS [2, 6]: A (a compound having 10 or more and less than 20 is denoted as A)
Kd ([3]; Single Cycle Kinetics): 0.97 nM
IC50 ([4]; NCI-H441 cells, 4 days): 40.2 nM

CCC(CC)[C@H]1C(=O)N(C)[C@H](C(=O)N(C)C)CC(=O)N(C)[C@@H](COC)C(=O)N[C@@H]([C@@H](C)CC)C(=O)N(C2CC2)CC(=O)N(C)[C@H]2C/C=C\CCN(C2=O)[C@@H](CC2CCCCC2)C(=O)N(C)CC(=O)N[C@@H](CCc2ccc(Cl)c(Cl)c2)C(=O)N2C[C@H](OC(C)C)C[C@H]2C(=O)NC2(CC(C)(C)C2)C(=O)N1C [PP2517]
HRAS /KRAS [2, 6]: A (a compound having 10 or more and less than 20 is denoted as A)
Kd ([3]; 1:1 binding model): 9.3 nM
IC50 ([4]; NCI-H441 cells, 4 days): 562 nM

CCO[C@@H]1C[C@H]2C(=O)NC3(CC(C)(C)C3)C(=O)N(C)[C@@H](C3CCCC3)C(=O)N(C)[C@H](C(=O)N(C)C)CC(=O)N(C)[C@@H]([C@H](C)OC)C(=O)N[C@@H]([C@@H](C)CC)C(=O)N(C)CC(=O)N(C)[C@H]3C/C=C\CCN(C3=O)[C@@H](Cc3ccc(C(F)(F)F)cc3)C(=O)N(C)CC(=O)N[C@@H](CCc3cc(F)c(C(F)(F)F)c(F)c3)C(=O)N2C1 [PP3169]
NRAS /KRAS [1, 5]: A (a compound having 10 or more and less than 20 is denoted as A)
HRAS /KRAS [2, 6]: A (a compound having 10 or more and less than 20 is denoted as A)
Kd ([3]; Single Cycle Kinetics): 0.064 nM
IC50 ([4]; NCI-H441 cells, 4 days): 7.9 nM

CCCCCC[C@H]1C(=O)N[C@@H]([C@@H](C)CC)C(=O)N(C)CC(=O)N(C)[C@H]2C/C=C\CCN(C2=O)[C@@H](Cc2ccc(C(F)(F)F)cc2)C(=O)N(C)CC(=O)N[C@@H](CCc2cc(F)c(C(F)(F)F)c(F)c2)C(=O)N2C[C@H](OCC)C[C@H]2C(=O)NC2(CCC2)C(=O)N(C)[C@@H](C(CC)CC)C(=O)N(C)[C@H](C(=O)N(C)C)CC(=O)N1C [PP1202]
Kd [3, 9]: 0.4 nM
IC50 [4, 10]: 24.1 nM

CCCOC[C@H]1C(=O)N[C@@H]([C@@H](C)OCC)C(=O)N(C)CC(=O)N(C)[C@H]2C/C=C\CCN(C2=O)[C@@H](Cc2ccc(C)cc2)C(=O)N(C)CC(=O)N[C@@H](CCc2ccc(C(F)(F)F)c(OC)c2)C(=O)N2C[C@@H](C)C[C@H]2C(=O)NC2(CC(C)(C)C2)C(=O)N(C)[C@@H](C2CCCC2)C(=O)N(C)[C@H](C(=O)N(C)CC)CC(=O)N1C [PP2423]
NRAS /KRAS [1, 5]: A (a compound having 10 or more and less than 20 is denoted as A)
HRAS /KRAS [2, 6]: A (a compound having 10 or more and less than 20 is denoted as A)
IC50 ([4]; NCI-H441 cells, 4 days): 71.9 nM

CCO[C@@H]1C[C@H]2C(=O)NC3(CCC3)C(=O)N(C)[C@@H](C3CCCC3)C(=O)N(C)[C@@H](C(=O)N(C)C)CC(=O)N(C)[C@@H](CC3CCCC3)C(=O)N[C@@H]([C@@H](C)CC)C(=O)N(C)CC(=O)N(C)[C@H]3C/C=C\CCN(C3=O)[C@@H](Cc3ccc(C(F)(F)F)cc3)C(=O)N(C)CC(=O)N[C@@H](CCc3cc(F)c(C(F)(F)F)c(F)c3)C(=O)N2C1 [PP1235]
NRAS /KRAS [1, 7]: B (a compound having 3 or more and less than 10 is denoted as B)
HRAS /KRAS [2, 8]: C (A compound having a KD ratio of 0.1 or more and less than 3 is denoted as C)
IC50 [4, 10]: 386 nM

CC[C@H](C)[C@@H]1NC(=O)[C@H](COC)N(C)C(=O)C[C@@H](C(=O)N(C)C)N(C)C(=O)[C@H](C2CCCC2)N(C)C(=O)C2(CC(C)(C)C2)NC(=O)[C@@H]2C[C@@H](OC3CCCC3)CN2C(=O)[C@H](CCc2cc(F)c(C(F)(F)F)c(F)c2)NC(=O)CN(C)C(=O)[C@H](Cc2ccc(C)cc2)N2CC/C=C\C[C@@H](C2=O)N(C)C(=O)CN(C2CC2)C1=O [PP2626]
NRAS /KRAS [1, 5]: A (a compound having 10 or more and less than 20 is denoted as A)
HRAS /KRAS [2, 6]: A (a compound having 10 or more and less than 20 is denoted as A)
IC50 ([4]; NCI-H441 cells, 4 days): 33.4 nM

CCCC[C@H]1C(=O)N[C@@H]([C@@H](C)CC)C(=O)N(C)CC(=O)N(C)[C@H]2C/C=C\CCN(C2=O)[C@@H](Cc2ccc(C(F)(F)F)cc2)C(=O)N(C)CC(=O)N[C@@H](CCc2cc(F)c(C(F)(F)F)c(F)c2)C(=O)N2C[C@H](OCC)C[C@H]2C(=O)NC2(CCC2)C(=O)N(C)[C@@H](C2CCCC2)C(=O)N(C)[C@H](C(=O)N2CCCC2)CC(=O)N1C [PP1396]
IC50 [4, 10]: 19.4 nM

CCO[C@@H]1C[C@H]2C(=O)NC3(CCC3)C(=O)N(C)[C@@H](C3CCCC3)C(=O)N(C)[C@H](C(=O)N(C)C)CC(=O)N(C)[C@@H](CC)C(=O)N[C@@H]([C@@H](C)CC)C(=O)N(C)CC(=O)N(C)[C@H]3C/C=C\CCN(C3=O)[C@@H](CC3CCCCC3)C(=O)N(C)CC(=O)N[C@@H](CCc3cc(F)c(C(F)(F)F)c(F)c3)C(=O)N2C1 [PP1466]
IC50 [4, 10]: 33.2 nM

CCC[C@H]1C(=O)N[C@@H]([C@@H](C)CC)C(=O)N(C)CC(=O)N(C)[C@H]2C/C=C\CCN(C2=O)[C@@H](Cc2ccc(C(F)(F)F)cc2)C(=O)N(C)CC(=O)N[C@@H](CCc2cc(F)c(C(F)(F)F)c(F)c2)C(=O)N2C[C@H](OCC)C[C@H]2C(=O)NC2(CCC2)C(=O)N(C)[C@@H](C2CCCC2)C(=O)N(C)[C@H](C(=O)N2CCCC2)CC(=O)N1C [PP1299]
IC50 [4, 10]: 11 nM

CC[C@H](C)[C@@H]1NC(=O)[C@H](CC)N(C)C(=O)C[C@@H](C(=O)N2CCOCC2)N(C)C(=O)[C@H](C2CCCC2)N(C)C(=O)C2(CCCC2)NC(=O)[C@@H]2CCCN2C(=O)[C@H](CCc2cc(F)c(C(F)(F)F)c(F)c2)NC(=O)CN(C)C(=O)[C@H](Cc2ccc(C(F)(F)F)cc2)N2CC(C)[C@@H](C)C[C@@H](C2=O)N(C)C(=O)CN(C)C1=O (stereo partly shown) [PP1350]
NRAS /KRAS [1, 7]: B (a compound having 3 or more and less than 10 is denoted as B)
HRAS /KRAS [2, 8]: B (a compound having 3 or more and less than 10 is denoted as B)
IC50 [4, 10]: 20.1 nM

CCO[C@@H]1C[C@H]2C(=O)NC3(CC(C)(C)C3)C(=O)N(C)[C@@H](C3CCCC3)C(=O)N(C)[C@H](C(=O)N(C)CC)CC(=O)N(C)[C@@H]([C@H](C)OC)C(=O)N[C@@H]([C@@H](C)CC)C(=O)N(C)CC(=O)N(C)[C@H]3C/C=C\CCN(C3=O)[C@@H](Cc3ccc(C(F)(F)F)cc3)C(=O)N(C)CC(=O)N[C@@H](CCc3ccc(C(F)(F)F)c(Cl)c3)C(=O)N2C1 [PP3218]
IC50 ([4]; NCI-H441 cells, 4 days): 15.1 nM

CCO[C@@H]1C[C@H]2C(=O)NC3(CCC3)C(=O)N(C)[C@@H](C3CCCC3)C(=O)N(C)[C@H](C(=O)N3CCOCC3)CC(=O)N(C)[C@@H](CC)C(=O)N[C@@H]([C@@H](C)CC)C(=O)N(C)CC(=O)N(C)[C@H]3C/C=C\CCN(C3=O)[C@@H](Cc3ccc(C(F)(F)F)cc3)C(=O)N(C)CC(=O)N[C@@H](CCc3ccc(C(F)(F)F)c(Cl)c3)C(=O)N2C1 [PP1281]
IC50 [4, 10]: 10.2 nM
